# The source made the active and inactive calls. The rule behind the calls is not given here.
# Biological target: Influenza A virus M2 proton channel (A/TW/4845/1999 H1N1)
# Test: NMR binding screen, influenza A virus M2 proton channel, Kd (AID 1549)
# Settings: M2 protein
row,Structure (SMILES),Kd
1,O=C(c1cccc(-n2cnnn2)c1)N1CCOCC1,> 4 mM (inactive)
2,O=C(NCc1cccs1)c1ccc2c(c1)OCCO2,> 4 mM (inactive)
3,CC(O)C(=O)N/N=C/c1cccs1 (stereo not given),> 4 mM (inactive)
4,Cc1ccnc(NS(=O)(=O)c2ccccc2)n1,> 4 mM (inactive)
5,NCc1ccc(-c2ccccn2)s1,> 4 mM (inactive)
6,Cc1onc(-c2c(F)cccc2Cl)c1C(N)=O,> 4 mM (inactive)
7,Cc1ccc(NC(=O)/C=C2\SC(=O)NC2=O)cc1,> 4 mM (inactive)
8,Nc1ncnc(NCc2cccnc2)c1[N+](=O)[O-],> 4 mM (inactive)
9,CC(C)(C)CC(=O)NNC(=O)c1cnccn1,> 4 mM (inactive)
10,Cc1ccc(CNc2ccc(O)cc2)cc1,> 4 mM (inactive)
11,Cc1cc(C)n(-c2nc(C)nc(N)n2)n1,> 4 mM (inactive)
12,COC(=O)N(c1ccccc1)P1(=S)OCCO1,> 4 mM (inactive)
13,C#CCCCCCCCCCCCC(O)CC(O)COC(C)=O (stereo not given),> 4 mM (inactive)
14,Cc1nn(-c2ccccc2)nc1C(N)=O,> 4 mM (inactive)
15,CCn1cnc(C(=O)NC)c1C(=O)NC,> 4 mM (inactive)
16,O=[n+]1c(CO)c(CO)n([O-])c2ccccc21,> 4 mM (inactive)
17,Cc1nc(-c2ccccc2)ncc1CO,> 4 mM (inactive)
18,NC(=O)CC1NC(=O)c2ccccc21 (stereo not given),> 4 mM (inactive)
19,O=C1NC(=Nc2ccc(O)cc2)S/C1=C/c1ccco1,> 4 mM (inactive)
20,O=C(NCc1ccco1)c1ccc(Br)s1,> 4 mM (inactive)

row,Structure (SMILES),Kd
1,O=c1[nH]c2ccccc2c(=O)n1CCCO,> 4 mM (inactive)
2,O=c1[nH]c(O)c(C=NC2CC2)c(=O)[nH]1,> 4 mM (inactive)
3,COc1ccccc1NC(=O)c1snnc1C,> 4 mM (inactive)
4,O=C1CSC(=Nc2ccc(O)cc2)N1,> 4 mM (inactive)
5,CC1(C)C2CC[C@]3(C)C(C(=O)C=C4[C@H]5C[C@@](C)(C(=O)O)CC[C@]5(C)CC[C@]43C)[C@@]2(C)CC[C@@H]1O (stereo not given in full),> 4 mM (inactive)
6,O=C1OC(N2CCOCC2)c2ccccc21 (stereo not given),> 4 mM (inactive)
7,O=C(Nc1ccon1)c1ccc(Cl)s1,> 4 mM (inactive)
8,CC(=O)O[C@H]1C[C@@H](OC(C)=O)C(C)(C)C2C[C@@H](OC(C)=O)[C@]3(C)C(CC[C@@]4(C)[C@H](c5ccoc5)OC(=O)[C@H]5O[C@]543)[C@]21C (stereo not given in full),> 4 mM (inactive)
9,FC(F)(F)c1cc(-c2ccco2)nc(N2CCOCC2)n1,> 4 mM (inactive)
10,Nc1cc(C(=O)N2CCCC2)cc(C(=O)N2CCCC2)c1,> 4 mM (inactive)
11,c1ccc(-c2nnc3sc(-c4ccncc4)nn23)cc1,> 4 mM (inactive)
12,NS(=O)(=O)c1ccc2c(c1)OCCO2,> 4 mM (inactive)
13,Cn1nc(-c2cccs2)cc1N,> 4 mM (inactive)
14,CC1=NN(c2ccc(N)cc2)C(=O)C1,> 4 mM (inactive)
15,O=c1[nH]c(=O)c2[nH]cnc2[nH]1,> 4 mM (inactive)
16,c1ccc(C2NCCc3[nH]cnc32)cc1 (stereo not given),> 4 mM (inactive)
17,CC(C)c1ccc2c(c1)CCC1C(C)(C(N)=O)CCCC21C (stereo not given),> 4 mM (inactive)
18,O=c1[nH]cc(NCc2ccco2)c(=O)[nH]1,> 4 mM (inactive)
19,Cn1ncc(NC(=O)Nc2ccc(F)cc2F)c1C(N)=O,> 4 mM (inactive)
20,Cc1cc([N+](=O)[O-])cc[n+]1[O-],> 4 mM (inactive)

row,Structure (SMILES),Kd
1,Fc1ccc2onc(C3CCNCC3)c2c1,> 4 mM (inactive)
2,S=C(c1ccc(N2CCOCC2)cc1)N1CCOCC1,> 4 mM (inactive)
3,O=C(c1ccc(Cl)c(F)c1F)N1CCCC1,> 4 mM (inactive)
4,Cc1cccc(NC(=O)CN2C(=O)CNC2=O)c1,> 4 mM (inactive)
5,COc1cc(-c2coc3cc(O[C@@H]4O[C@H](CO)[C@@H](O)[C@H](O)[C@H]4O)c(OC)c(O)c3c2=O)cc(O)c1OC,> 4 mM (inactive)
6,S=C=NCc1ccccc1,> 4 mM (inactive)
7,O=C1C[C@@H](c2ccccc2)Oc2cc(O)cc(O)c21,> 4 mM (inactive)
8,O=c1c2ccccc2nc2n1CCC2O (stereo not given),> 4 mM (inactive)
9,NC(=O)CNC(=O)c1ccc2ccccc2n1,> 4 mM (inactive)
10,O=C1c2ccccc2C(=O)N1CCc1ccccn1,> 4 mM (inactive)
11,Cc1nn(C)c(Cl)c1S(=O)(=O)N1CCOCC1,> 4 mM (inactive)
12,NC(=O)c1cccc(Cl)n1,> 4 mM (inactive)
13,O=C(O)CNc1ncnc2nc[nH]c12,> 4 mM (inactive)
14,O=C(O)CCCCC1SCC2NC(=O)NC21 (stereo not given),> 4 mM (inactive)
15,Cc1nc2ccc(C(=O)N3CCSCC3)cc2s1,> 4 mM (inactive)
16,CN(C(N)=O)C1(C)CCS(=O)(=O)C1 (stereo not given),> 4 mM (inactive)
17,CCc1ccc2oc(-c3cc(N)cc(C)c3O)nc2c1,> 4 mM (inactive)
18,O=C(Cc1c(F)cccc1Cl)Nc1ccncc1,> 4 mM (inactive)
19,Cc1oc(-c2ccccc2)cc1C(N)=O,> 4 mM (inactive)
20,COc1ccc(CN2CCC(O)CC2)c(O)c1,> 4 mM (inactive)

# Source: PubChem BioAssay AID1549 (Sanford-Burnham Center for Chemical Genomics, 2009)
